Patent US9303033B2, “Pyrazolopyrimidines and related heterocycles as CK2 inhibitors” (SENHWA BIOSCIENCES, INC., priority 2009, dated 2016)
Like-named read-outs stand apart in the source and are kept apart here.

Experiments:
[1] = molecular target: recombinant PIM-1 (Homo sapiens (Human), UniProt P11309); assay: PIM-1 assay (33P-ATP filter binding); format: biochemical; settings: read-out: PIM1: IC50 (30 μM ATP)
[2] = molecular target: recombinant human PIM2 (Homo sapiens (Human), UniProt Q9P1W9); assay: PIM-2 assay (33P-ATP filter binding); format: biochemical; settings: for PIM2: % inh […]: at […] compound
recombinant human PIM2, sequence (Q9P1W9 whole entry): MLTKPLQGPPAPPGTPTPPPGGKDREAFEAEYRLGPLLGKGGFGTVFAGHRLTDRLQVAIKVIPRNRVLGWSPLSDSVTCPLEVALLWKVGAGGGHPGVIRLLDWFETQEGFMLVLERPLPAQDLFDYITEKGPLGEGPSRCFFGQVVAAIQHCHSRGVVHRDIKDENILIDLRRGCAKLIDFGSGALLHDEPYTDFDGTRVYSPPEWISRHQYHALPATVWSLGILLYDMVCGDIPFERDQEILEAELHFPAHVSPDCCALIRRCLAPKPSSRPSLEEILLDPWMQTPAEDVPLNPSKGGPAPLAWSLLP

[3] = molecular target: CK2 ααββ (Homo sapiens (Human), UniProt P68400); assay: CK2 assay (cell-free, 33P-ATP, phosphocellulose filter plate); format: biochemical
CK2 ααββ, sequence (P68400 whole entry): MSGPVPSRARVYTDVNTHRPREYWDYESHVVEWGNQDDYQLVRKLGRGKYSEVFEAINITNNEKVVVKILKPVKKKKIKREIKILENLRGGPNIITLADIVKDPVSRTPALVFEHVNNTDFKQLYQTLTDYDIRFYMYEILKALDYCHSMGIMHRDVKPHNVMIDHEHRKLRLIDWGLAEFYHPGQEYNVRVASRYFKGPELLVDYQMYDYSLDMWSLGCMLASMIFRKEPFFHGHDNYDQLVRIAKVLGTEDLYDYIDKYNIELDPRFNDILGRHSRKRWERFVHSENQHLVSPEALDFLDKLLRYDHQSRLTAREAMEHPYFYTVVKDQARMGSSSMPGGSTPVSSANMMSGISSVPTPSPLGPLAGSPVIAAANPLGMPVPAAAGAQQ
CK2 ααββ, sequence (P67870 whole entry partner): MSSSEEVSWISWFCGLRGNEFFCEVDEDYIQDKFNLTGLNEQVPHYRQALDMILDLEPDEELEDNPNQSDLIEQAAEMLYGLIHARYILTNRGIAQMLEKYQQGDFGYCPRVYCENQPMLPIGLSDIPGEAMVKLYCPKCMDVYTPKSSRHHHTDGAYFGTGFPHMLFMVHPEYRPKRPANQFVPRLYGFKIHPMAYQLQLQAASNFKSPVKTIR

[4] = system: MDAMB453; assay: Cell proliferation assay with Alamar Blue (AB), MDAMB453; format: cell-based
In short: (§1)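 4,000–5,000 cells per well were exposed to compound for four days at 37° C, 5% CO2. Alamar Blue was then added for four hours, and fluorescence was read at 544 nm excitation / 590 nm emission.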

[5] = system: BxPC3 human pancreatic adenocarcinoma cells; assay: Cell proliferation assay with Alamar Blue (AB), BxPC3; format: cell-based
In short: as §1

[6] = PIM2: IC50 (5 μM ATP), 5 μM ATP
[7] = MDAMB453 cells, read-out: AB: MDAMB453 IC50
[8] = Homo sapiens, MDA-MB-453, MDAMB453 cells, read-out: AB: MDAMB453
[9] = Homo sapiens, BXPC-3, read-out: AB: BxPC3

recombinant PIM-1, sequence (P11309 whole entry): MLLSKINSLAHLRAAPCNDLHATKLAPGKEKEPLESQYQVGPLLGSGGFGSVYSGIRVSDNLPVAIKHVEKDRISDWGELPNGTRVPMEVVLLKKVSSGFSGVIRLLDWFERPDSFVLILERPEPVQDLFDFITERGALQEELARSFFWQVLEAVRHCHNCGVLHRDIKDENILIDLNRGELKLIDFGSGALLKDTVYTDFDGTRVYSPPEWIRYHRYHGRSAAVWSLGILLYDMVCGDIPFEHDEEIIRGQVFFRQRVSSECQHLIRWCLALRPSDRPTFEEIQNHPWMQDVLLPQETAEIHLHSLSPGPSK

Row | IC50 [1] [µM] | IC50 [2, 6] [µM] | IC50 [3] [µM] | IC50 [4, 8] [µM] | IC50 [5, 9] [µM] | Compound | further results
1 | 1.45 | 1.44 | < 0.1 | – | – | CN1CCC(N(C)c2cc(NC3CC3)n3ncc(/C=C4\SC(=O)NC4=O)c3n2)C1 (stereo not drawn) [Example M3] | –
2 | – | > 2.5 | < 0.01 | 20 | 4.61 | CC(O)c1cccc(-c2cc(NC3CC3)n3ncc(/C=C4\NC(=O)NC4=O)c3n2)c1 (stereo not drawn) [Example S4] | –
3 | – | > 2.5 | < 0.01 | 0.5 | 1.35 | O=C1NC(=O)/C(=C/c2cnn3c(NC4CC4)cc(Nc4ccc(F)cc4Cl)nc23)N1 [Example L1] | –
4 | – | 0.359 | < 0.01 | 6.68 | 4.87 | CC(C)(C)CC(=O)Nc1cc(NC2CC2)n2ncc(/C=C3\NC(=O)NC3=O)c2n1 [Example M2] | –
5 | 2.06 | 1.85 | < 0.1 | 7.7 | 9.45 | CCN1CCCC1CNc1cc(NC2CC2)n2ncc(/C=C3\SC(=O)NC3=O)c2n1 (stereo not drawn) [Example G3] | –
6 | > 2.5 | 0.876 | < 0.1 | – | – | CN(C)c1cc(NC2CC2)n2ncc(/C=C3\SC(=O)NC3=O)c2n1 [Example I3] | –
7 | – | 1.25 | < 0.01 | > 30 | 14.4 | O=C1NC(=O)/C(=C/c2cnn3c(NC4CC4)cc(-c4cccc(CN5CCOCC5)c4)nc23)N1 [Example M4] | –
8 | – | > 2.5 | < 0.1 | 1.57 | 17.4 | CN(C)C(=O)N1CCC(Nc2cc(Nc3cccc(Cl)c3)nc3c(/C=C4\NC(=O)NC4=O)cnn23)CC1 [Example N5] | –
9 | – | – | < 0.01 | > 30 | > 30 | CC(=O)NC1CCC(Nc2cc(NC3CC3)n3ncc(/C=C4\NC(=O)NC4=O)c3n2)CC1 (stereo not drawn) [Example A3] | IC50 ([2]; read-out: PIM2: IC50 (5 μM ATP), 5 μM ATP): > 2.5 µM
10 | – | > 2.5 | < 0.1 | 1.71 | 2.74 | CCCS(=O)(=O)Nc1cccc(-c2cc(NC3CC3)n3ncc(/C=C4\NC(=O)NC4=O)c3n2)c1 [Example T4] | –
11 | – | > 2.5 | < 0.01 | 1.04 | 15 | O=C1NC(=O)/C(=C/c2cnn3c(NC4CC4)cc(Nc4cccc(Cl)c4)nc23)N1 [Example C1] | IC50 ([2]; read-out: PIM2: IC50): 1.3 µM
12 | – | > 2.5 | < 0.1 | 0.825 | 16.5 | O=C1NC(=O)/C(=C/c2cnn3c(NC4CCN(CCO)CC4)cc(Nc4cccc(Cl)c4)nc23)N1 [Example P5] | –

Continued, compound first:

Row | Compound | IC50 [1] [µM] | IC50 [2, 6] [µM] | IC50 [3] [µM] | IC50 [4, 8] [µM] | IC50 [5, 9] [µM] | further results
13 | CC(O)CNc1cc(NC2CC2)n2ncc(/C=C3\SC(=O)NC3=O)c2n1 (stereo not drawn) [Example H3] | 2.39 | > 2.5 | < 1 | – | – | –
14 | O=C1NC(=O)/C(=C/c2cnn3c(NC4CC4)cc(Nc4cccc(Cl)c4)nc23)S1 [Example J3] | > 2.5 | > 2.5 | < 1 | – | – | –
15 | CC(C)CNc1cc(NC2CC2)n2ncc(/C=C3\SC(=O)NC3=O)c2n1 [Example F3] | 2.06 | 1.64 | < 1 | – | – | –
16 | O=C1NC(=O)/C(=C/c2cnn3c(NC4CC4)cc(N4CCOCC4)nc23)S1 [Example K3] | 0.918 | 1.39 | < 1 | – | – | –
17 | CCN(CC)c1cc(NC2CC2)n2ncc(/C=C3\SC(=O)NC3=O)c2n1 [Example L3] | > 2.5 | 1.43 | < 1 | – | – | –
18 | O=C1NC(=O)/C(=C/c2cnn3c(NC4CC4)cc(NCCF)nc23)S1 [Example N3] | > 2.5 | > 2.5 | < 1 | – | – | –
19 | CN1C(=O)NC(=Cc2cnn3c(NC4CC4)cc(Nc4ccc(C#N)c(Cl)c4)nc23)C1=O [Example E42] | – | – | < 0.1 | – | – | IC50 [4, 7]: 1.29 µM; PIM2: % inh […] [2]: −72.498%; IC50 ([5]; read-out: AB: BxPC3 IC50): 1.97 µM
20 | CN1C(=O)S/C(=C\c2cnn3c(NC4CC4)cc(Nc4cccc(Cl)c4)nc23)C1=O [Example P3] | > 2.5 | > 2.5 | < 1 | – | – | –
21 | CC(C)(C)OC(=O)c1cccc(Nc2cc(Nc3cccc(Cl)c3)nc3c(/C=C4\NC(=O)NC4=O)cnn23)c1 [Example B7] | – | > 2.5 | < 0.01 | 7.77 | 10.2 | –
22 | O=C1NC(=O)/C(=C/c2cnn3c(NC4CC4)cc(-c4cccc(OCC5=NCCN5)c4)nc23)N1 [Example K4] | – | 1.31 | < 0.1 | 1.94 | 2.58 | –
23 | Cc1c(Nc2ccc(C#N)cc2F)nc2c(C=C3NC(=O)NC3=O)cnn2c1NC1CC1 [Example C46] | – | – | < 0.01 | – | – | IC50 [4, 7]: 6.29 µM; PIM2: % inh […] [2]: 59.266%; IC50 ([5]; read-out: AB: BxPC3 IC50): 15.2 µM
24 | Cc1c(Nc2cccc(Cl)c2)nc2c(C=C3NC(=O)NC3=O)cnn2c1NC1CC1 [Example B46] | – | – | < 0.01 | – | – | IC50 [4, 7]: 24.2 µM; PIM2: % inh […] [2]: 47.606%; IC50 ([5]; read-out: AB: BxPC3 IC50): > 30 µM
25 | O=C1NC(=O)/C(=C/c2cnn3c(NC4CC4)cc(Nc4ccc(Cl)cc4)nc23)N1 [Example I1] | – | > 2.5 | < 0.01 | 11.1 | 15.1 | –
26 | O=C1NC(=O)/C(=C/c2cnn3c(NC4CC4)cc(-c4cccc(CO)c4)nc23)N1 [Example V3] | – | 0.649 | < 0.01 | 0.477 | 5.17 | –
27 | O=C1NC(=O)/C(=C/c2cnn3c(NC4CCNCC4)cc(Nc4cccc(Cl)c4)nc23)N1 [Example K5] | – | 2.45 | < 0.1 | 1.08 | 11 | –
28 | CN1CCC(Nc2cc(NC3CC3)n3ncc(/C=C4\NC(=O)NC4=O)c3n2)CC1 [Example V2] | – | 1.37 | < 0.01 | 1.48 | 1.63 | –
29 | O=C1NC(=O)/C(=C/c2cnn3c(NC4CC4)cc(SCc4ccccc4)nc23)N1 | – | – | < 0.01 | > 30 | 11 | IC50 ([2]; 5 um ATP, read-out: PIM2: IC50 (5 um ATP)): > 2.5 µM
30 | O=C1NC(=O)/C(=C/c2cnn3c(NC4CC4)cc(N4CC[C@@H](F)C4)nc23)N1 [Example P2] | – | 0.708 | < 0.01 | 0.66 | 2.12 | –
31 | O=C1NC(=O)/C(=C/c2cnn3c(NCC4CC4)cc(Nc4cccc(Cl)c4)nc23)N1 [Example T1] | – | 0.509 | < 0.01 | 2.2 | 12.3 | –
